Reference: PubChem BioAssay AID463098 (The Scripps Research Institute Molecular Screening Center, 2010)
The source made the active and inactive calls.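 Rule for the calls: active = compounds that block at least 90% of GSTO1 probe labeling in cell lysate; inactive = the rest.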

Molecular target: Glutathione S-transferase omega-1 (Homo sapiens) (UniProt P78417)
Assay: native GSTO1 blockade in soluble lysate – cell lysate, MDA-MB-435 proteome, gel ABPP, SE-Rh, percent inhibition, late-stage follow-up (AID 463098)
Conditions: gel ABPP SE-Rh fluorescence, at 1 µM, hits give high values

Chain of Glutathione S-transferase omega-1 (Homo sapiens) (P78417 whole entry, looked up): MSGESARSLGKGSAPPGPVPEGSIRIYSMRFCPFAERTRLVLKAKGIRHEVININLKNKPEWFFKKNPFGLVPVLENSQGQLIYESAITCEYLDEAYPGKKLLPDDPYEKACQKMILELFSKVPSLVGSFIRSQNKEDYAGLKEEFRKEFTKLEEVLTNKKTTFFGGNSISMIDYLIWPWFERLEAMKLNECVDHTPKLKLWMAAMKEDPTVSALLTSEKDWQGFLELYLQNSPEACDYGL

Row | SMILES | inhibition
1 | COc1ccc(N(C(=O)CCl)C(C(=O)NCCc2ccccc2)c2cccs2)cc1 (configuration not stated) | 86% (inactive)
2 | COc1cccc(N(C(=O)CCl)C(C(=O)NCCc2ccccc2)c2cccs2)c1 (configuration not stated) | 75% (inactive)
3 | Cc1ccc2c(c1)c(=O)c1c3n2CCN(C(=O)CCl)C3CC1 (configuration not stated) | 57% (inactive)
4 | CN(Cc1ccc(Cl)cc1)C(=O)CCl | 18% (inactive)
5 | CN(Cc1ccc(Cl)s1)C(=O)CCl | 83% (inactive)
6 | O=C(NC1CCCCC1)C(c1cccnc1)N(C(=O)CCl)c1cccc(Cl)c1 (configuration not stated) | 100%
7 | CCCCCCCN(C(=O)CCl)c1ccccc1C | 51% (inactive)
8 | Cc1cccc(CN2CCN(C(=O)CCl)CC2)c1 | 90%
9 | CCCCCCCN(C(=O)CCl)c1cccc(C)c1 | 58% (inactive)
10 | C=CCOc1ccccc1CN(C(=O)CCl)c1ccc2c(c1)OCO2 | 35% (inactive)
11 | Cc1cccc(N(Cc2cc(=O)[nH]c3ccccc23)C(=O)CCl)c1 | 82% (inactive)
12 | CCCN(C(=O)CCl)C1=CCCCC1 | 0% (inactive)
13 | Cc1nn(-c2ccccc2)c(Cl)c1CN(C(=O)CCl)c1cccc2ccccc12 | 34% (inactive)
14 | COc1cc2c(cc1OC)C(c1cc(Br)ccc1F)N(C(=O)CCl)CC2 (configuration not stated) | 80% (inactive)
15 | COc1ccc(C(C(=O)NC2CCCCC2)N(C(=O)CCl)c2ccc(C)cc2)cc1 (configuration not stated) | 82% (inactive)
16 | O=c1cc(CCl)nc2sc3ccccc3n12 | 83% (inactive)
17 | N#CCCN(C(=O)CCl)c1cccc(Cl)c1 | 69% (inactive)
18 | O=C(CCl)N(c1ccccc1)C1CCCCC1 | 24% (inactive)
19 | O=C(CCl)N(CCc1ccccc1)CCc1ccccc1 | 57% (inactive)
20 | CC1CCc2c(sc3nc(C(C)(C)C)nc(N4CCN(C(=O)CCl)CC4)c23)C1 (configuration not stated) | 48% (inactive)
21 | COC(=O)C1Cc2ccccc2CN1C(=O)CCl (configuration not stated) | 40% (inactive)
22 | O=C(CCl)N(Cc1cc(=O)[nH]c2ccccc12)c1ccccc1 | 38% (inactive)
23 | CCOC(=O)N1CCN(C(=O)CCl)CC1 | 22% (inactive)
24 | COc1ccccc1NS(=O)(=O)c1ccc2nc(CCl)[nH]c2c1 | 88% (inactive)

Row | SMILES | inhibition
25 | O=C(CCl)N(Cc1ccccc1)c1ccccc1 | 56% (inactive)
26 | Cc1ccc(N(Cc2cc(=O)[nH]c3ccccc23)C(=O)CCl)cc1 | 41% (inactive)
27 | COCCN(C(=O)CCl)C(C(=O)NC1CCCCC1)c1ccccc1C (configuration not stated) | 25% (inactive)
28 | O=c1[nH]c(CCl)nc2cc(-c3ccc(F)cc3)sc12 | 100%
29 | O=C(CCl)N(C/C=C/c1ccccc1)c1ccc2c(c1)OCCO2 | 58% (inactive)
30 | O=C(CCl)N1CCN(S(=O)(=O)c2ccc3ccccc3c2)CC1 | 100%
31 | COc1cc2c(cc1OC)C(c1ccccc1)N(C(=O)CCl)CC2 (configuration not stated) | 81% (inactive)
32 | CC1CCCN(C(=O)CCl)C1 (configuration not stated) | 34% (inactive)
33 | COc1ccc(N(C(=O)CCl)C(C(=O)NC2CCCCC2)c2cccnc2)cc1 (configuration not stated) | 97%
34 | Cc1ccc(N(C(=O)CCl)C(C(=O)NC2CCCCC2)c2cccnc2)cc1C (configuration not stated) | 76% (inactive)
35 | CC(C)N(CC(=O)Nc1ccc(Cl)cc1C(F)(F)F)C(=O)CCl | 7% (inactive)
36 | CC(=O)n1cc(N(C(=O)CCl)c2ccc(Cl)cc2)c2ccccc21 | 38% (inactive)
37 | O=c1cc(CCl)nc(Cc2c(Cl)cccc2Cl)[nH]1 | 59% (inactive)
38 | CCCCCn1c(=O)c2ccccc2n2c(CCl)nnc12 | 73% (inactive)
39 | COc1ccc(C(C(=O)NC2CCCCC2)N(C(=O)CCl)c2cccc(Cl)c2)cc1 (configuration not stated) | 100%
40 | Cc1ccc(NC(=O)Cc2nc(CCl)cs2)cc1 | 55% (inactive)
41 | O=c1cc(CCl)nc2scc(-c3ccccc3)n12 | 22% (inactive)
42 | CCC1(CC)Cc2ccccc2-c2nc(CCl)[nH]c(=O)c21 | 84% (inactive)
43 | CC(=O)n1cc(N(C(=O)CCl)c2ccccc2)c2ccccc21 | 0% (inactive)
44 | O=C(CCl)N1c2ccccc2OCC1c1ccccc1 (configuration not stated) | 37% (inactive)
45 | Cc1ccc2c(c1)c1c3n2CCN(C(=O)CCl)C3CCC1 (configuration not stated) | 96%
46 | CCOC(=O)c1sc(N(Cc2ccccc2)C(=O)CCl)nc1C | 82% (inactive)
47 | CC(=O)n1cc(N(C(=O)CCl)c2ccc(C)cc2)c2ccccc21 | 70% (inactive)
48 | COC(CN(C(=O)CCl)C(C(=O)NC1CCCCC1)c1ccccc1C)OC (configuration not stated) | 0% (inactive)

Row | SMILES | inhibition
49 | CCc1ccc(-c2nc(CCl)cs2)cc1 | 40% (inactive)
50 | COc1ccc(N(C(=O)CCl)C(C(=O)NCCc2ccccc2)c2cccs2)cc1Cl (configuration not stated) | 100%
51 | CCCCCCN(C(=O)CCl)c1ccccc1 | 43% (inactive)
52 | COC(=O)CC1C(=O)NC2CCCCC2N1C(=O)CCl (configuration not stated) | 0% (inactive)
53 | CCC(C)N(CC(=O)Nc1cccc(C)c1C)C(=O)CCl (configuration not stated) | 26% (inactive)
54 | CCOc1ccc(CN(C)C(=O)CCl)cc1 | 47% (inactive)
55 | CC1CCN(C(=O)CCl)CC1 | 53% (inactive)
56 | COc1ccc(N(Cc2cc(=O)[nH]c3ccccc23)C(=O)CCl)cc1 | 38% (inactive)
57 | O=C(CCl)N(c1ccc(Cl)cc1)c1c[nH]c2ccccc12 | 23% (inactive)
58 | O=C(NC1CCCC1)C(c1ccc(F)cc1)N(Cc1ccccc1Cl)C(=O)CCl (configuration not stated) | 61% (inactive)
59 | O=Cc1[nH]c2ccccc2c1N(C(=O)CCl)c1ccc([N+](=O)[O-])cc1 | 75% (inactive)
60 | O=C(NCCc1ccccc1)C(c1cccs1)N(C(=O)CCl)c1ccc(Cl)cc1 (configuration not stated) | 88% (inactive)
61 | COc1ccc(C(C(=O)NC2CCCCC2)N(C(=O)CCl)c2ccc(Cl)cc2)cc1 (configuration not stated) | 100%
62 | Cc1nn(-c2ccccc2)c(Cl)c1CN(C(=O)CCl)c1ccc(Cl)cc1 | 93%
63 | O=C(CCl)N1c2ccccc2SCC1c1ccccc1 (configuration not stated) | 65% (inactive)
64 | CN(C)C(=O)CN1CCN(C(=O)CCl)CC1 | 3% (inactive)
65 | COc1cccc(-c2nc(CCl)cs2)c1 | 50% (inactive)
66 | CC(C)CCn1c(=O)c2ccccc2n2c(CCl)nnc12 | 87% (inactive)
67 | COc1ccc(CN(CCC(c2ccccc2)c2ccc(OC(C)C)cc2)C(=O)CCl)cc1OC (configuration not stated) | 81% (inactive)
68 | O=C(NC1CCCCC1)C(c1cccnc1)N(C(=O)CCl)c1ccc(F)cc1 (configuration not stated) | 100%
69 | O=S(=O)(c1ccc(Cl)cc1)N1CCC2(CC1)CO2 | 94%
70 | O=C(O)C1Cc2ccccc2CN1C(=O)CCl (configuration not stated) | 84% (inactive)
71 | Cc1nn(-c2ccc(Cl)cc2)c2[nH]c(CCl)cc(=O)c12 | 26% (inactive)
72 | COc1ccc(C(CCN(Cc2ccc(OC)c(OC)c2)C(=O)CCl)c2ccccc2)cc1 (configuration not stated) | 100%
